Patent US10045983B2, “Heteroaryl pyridone and aza-pyrodine compounds” (Genentech, Inc., priority 2011, dated 2018)
Like-named read-outs stand apart in the source and are kept apart here.

Assay: CD69 Whole Blood Assay (CD69 Hu Blood FACS)
Type: cell-based, human
Details: Lymphocyte, human whole blood, anti-IgM activated B lymphocytes, FACS, IC70
Outline: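 Human whole blood stimulated by crosslinking surface IgM with goat F(ab′)2 anti-human IgM; inhibition of CD69 expression on B lymphocytes measured by flow cytometry.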

[1] = Table 2 (unit inferred), read-out: CD69 Hu Blood FACS (IC70)
[2] = Table 1, read-out: CD69 Hu Blood FACS IC70

| Structure (SMILES) | IC70 [1] | IC70 [2] |
| --- | --- | --- |
| CC(=O)N1CCn2nc(Nc3cc(-c4ccnc(N5CCn6c(cc7c6CCCC7)C5=O)c4CO)cn(C)c3=O)cc2C1 [Example 209, 2-[4-[5-[(5-acetyl-6,7-dihydro-4H-pyrazolo[1,5-a]pyrazin-2-yl)amino]-1-methyl-6-oxo-3-pyridyl]-3-(hydroxymethyl)-2-pyridyl]-3,4,6,7,8,9-hexahydropyrazino[1,2-a]indol-1-one] | 0.116 µM |  |
| CN1CCn2nc(Nc3cc(-c4ccnc(-n5ncc6c(cc7n6CCCC7)c5=O)c4CO)cn(C)c3=O)cc2C1 [Example 204, 2-[3-(hydroxymethyl)-4-[1-methyl-5-[(5-methyl-6,7-dihydro-4H-pyrazolo[1,5-a]pyrazin-2-yl)amino]-6-oxo-3-pyridyl]-2-pyridyl]-6,7,8,9-tetrahydropyridazino[4,5-b]indolizin-1-one] | 0.436 µM |  |
| CN1CC(c2ccc(Nc3cc(-c4ccnc(N5CCn6c(cc7c6CC(C)(C)C7)C5=O)c4CO)cn(C)c3=O)nc2)C1 [Example 240, 3-[3-(hydroxymethyl)-4-[1-methyl-5-[[5-(1-methylazetidin-3-yl)-2-pyridyl]amino]-6-oxo-3-pyridyl]-2-pyridyl]-7,7-dimethyl-1,2,6,8-tetrahydrocyclopenta[3,4]pyrrolo[3,5-b]pyrazin-4-one] | 0.0229 µM |  |
| Cn1cc(-c2ccnc(N3CCn4c(cc5c4CC(C)(C)C5)C3=O)c2CO)cc(Nc2cc(C3COC3)[nH]n2)c1=O [Example 266, 3-[3-(hydroxymethyl)-4-[1-methyl-5-[[5-(oxetan-3-yl)-1H-pyrazol-3-yl]amino]-6-oxo-3-pyridyl]-2-pyridyl]-7,7-dimethyl-1,2,6,8-tetrahydrocyclopenta[3,4]pyrrolo[3,5-b]pyrazin-4-one] | 0.0293 µM |  |
| Cn1cc(-c2ccnc(N3CCn4c(cc5c4CC(C)(C)C5)C3=O)c2CO)cc(Nc2ccc(C3CC3)cn2)c1=O [Example 278, 3-[4-[5-[(5-cyclopropyl-2-pyridyl)amino]-1-methyl-6-oxo-3-pyridyl]-3-(hydroxymethyl)-2-pyridyl]-7,7-dimethyl-1,2,6,8-tetrahydrocyclopenta[3,4]pyrrolo[3,5-b]pyrazin-4-one] | 3.2 µM |  |
| COC[C@H](C)N1CCn2nc(Nc3cc(-c4ccnc(N5CCn6c(cc7c6CC(C)(C)C7)C5=O)c4CO)cn(C)c3=O)cc2C1 (single isomer, unassigned) [Example 303] | 0.0179 µM |  |
| Cn1cc(-c2ccnc(N3CCn4c(cc5c4CC(C)(C)C5)C3=O)c2CO)cc(Nc2cnc(C#N)cn2)c1=O [Example 298, 5-[[5-[2-(7,7-dimethyl-4-oxo-1,2,6,8-tetrahydrocyclopenta[3,4]pyrrolo[3,5-b]pyrazin-3-yl)-3-(hydroxymethyl)-4-pyridyl]-1-methyl-2-oxo-3-pyridyl]amino]pyrazine-2-carbonitrile] | 0.869 µM |  |
| Cn1nc(-c2ccnc(N3CCn4c(cc5c4CC(C)(C)C5)C3=O)c2CO)cc(Nc2ccc(C(=O)N3CCOCC3)cn2)c1=O [Example 226, 3-[3-(hydroxymethyl)-4-[1-methyl-5-[[5-(morpholine-4-carbonyl)-2-pyridyl]amino]-6-oxo-pyridazin-3-yl]-2-pyridyl]-7,7-dimethyl-1,2,6,8-tetrahydrocyclopenta[3,4]pyrrolo[3,5-b]pyrazin-4-one] | 0.117 µM |  |
| Cc1cnc(Nc2cc(-c3ccnc(N4CCn5c(cc6c5CC(C)(C)C6)C4=O)c3CO)cn(C)c2=O)o1 [Example 262, 3-[3-(hydroxymethyl)-4-[1-methyl-5-[(5-methyloxazol-2-yl)amino]-6-oxo-3-pyridyl]-2-pyridyl]-7,7-dimethyl-1,2,6,8-tetrahydrocyclopenta[3,4]pyrrolo[3,5-b]pyrazin-4-one] | 0.577 µM |  |
| CC(=O)N1CCc2nc(Nc3cc(-c4ccnc(N5CCn6c7c(c(F)c6C5=O)CCCC7)c4CO)cn(C)c3=O)sc2C1 [Example 234, 2-[4-[5-[(5-acetyl-6,7-dihydro-4H-thiazolo[5,4-c]pyridin-2-yl)amino]-1-methyl-6-oxo-3-pyridyl]-3-(hydroxymethyl)-2-pyridyl]-10-fluoro-3,4,6,7,8,9-hexahydropyrazino[1,2-a]indol-1-one] | 0.183 µM |  |
| C[C@H]1CN(C2COC2)CCN1c1ccc(Nc2cc(-c3ccnc(-n4ncc5c6n(cc5c4=O)CCCC6)c3CO)cn(C)c2=O)nc1 [Example 192, 3-[3-(hydroxymethyl)-4-[1-methyl-5-[[5-[(2S)-2-methyl-4-(oxetan-3-yl)piperazin-1-yl]-2-pyridyl]amino]-6-oxo-3-pyridyl]-2-pyridyl]-7,8,9,10-tetrahydropyridazino[4,5-a]indolizin-4-one] | 1.1 µM |  |
| Cn1cc(-c2ccnc(N3CCc4c(sc5c4CCCC5)C3=O)c2CO)cc(Nc2ccc(N3CCN(C4COC4)CC3)cn2)c1=O [Example 169, 2-{3′-Hydroxymethyl-1-methyl-5-[5-(4-oxetan-3-yl-piperazin-1-yl)-pyridin-2-ylamino]-6-oxo-1,6-dihydro-[3,4′]bipyridinyl-2′-yl}-3,4,5,6,7,8-hexahydro-2H-benzo[4,5]thieno[2,3-c]pyridin-1-one] |  | 0.206 µM |
| Cn1nc(-c2ccnc(N3CCc4c(sc5c4CC(C)(C)C5)C3=O)c2CO)cc(Nc2ccc(C(=O)N3CCOCC3)cn2)c1=O [Example 259, 3-[3-(hydroxymethyl)-4-[1-methyl-5-[[5-(morpholine-4-carbonyl)-2-pyridyl]amino]-6-oxo-pyridazin-3-yl]-2-pyridyl]-7,7-dimethyl-1,2,6,8-tetrahydrocyclopenta[3,4]thieno[1,3-c]pyridin-4-one] | 0.301 µM |  |
| CN(Cc1cc(Nc2cc(-c3ccnc(N4CCn5c(cc6c5CC(C)(C)C6)C4=O)c3CO)cn(C)c2=O)nn1C)C1COC1 [Example 302, 3-[3-(hydroxymethyl)-4-[1-methyl-5-[[1-methyl-5-[[methyl(oxetan-3-yl)amino]methyl]pyrazol-3-yl]amino]-6-oxo-3-pyridyl]-2-pyridyl]-7,7-dimethyl-1,2,6,8-tetrahydrocyclopenta[3,4]pyrrolo[3,5-b]pyrazin-4-one] | 0.0228 µM |  |
| Cn1cc(-c2ccnc(N3CCn4c(cc5c4CC(C)(C)C5)C3=O)c2CO)cc(Nc2cn(C3COC3)cn2)c1=O [Example 285, 3-[3-(hydroxymethyl)-4-[1-methyl-5-[[1-(oxetan-3-yl)imidazol-4-yl]amino]-6-oxo-3-pyridyl]-2-pyridyl]-7,7-dimethyl-1,2,6,8-tetrahydrocyclopenta[3,4]pyrrolo[3,5-b]pyrazin-4-one] | 0.175 µM |  |
| Cn1cc(Nc2cc(-c3ccnc(N4CCc5c(sc6c5CC(C)(C)C6)C4=O)c3CO)cn(C)c2=O)nn1 [Example 333, 3-[3-(hydroxymethyl)-4-[1-methyl-5-[(1-methyltriazol-4-yl)amino]-6-oxo-3-pyridyl]-2-pyridyl]-7,7-dimethyl-1,2,6,8-tetrahydrocyclopenta[3,4]thieno[1,3-c]pyridin-4-one] | 0.209 µM |  |
| C[C@H]1CN(C2COC2)CCN1c1ccc(Nc2cc(-c3ccnc(N4CCn5c(cc6c5[C@@H]5CC[C@H]6C5)C4=O)c3CO)cn(C)c2=O)nc1 [Example 174, (1R,11S)-6-[3-(Hydroxymethyl)-4-[1-methyl-5-({5-[(2S)-2-methyl-4-(oxetan-3-yl)piperazin-1-yl]pyridin-2-yl}amino)-6-oxo-1,6-dihydropyridin-3-yl]pyridin-2-yl]-3,6-diazatetracyclo[9.2.1.0^2,10.0^3,8]tetradeca-2(10),8-dien-7-one] |  | 0.101 µM |
| Cn1cc(-c2ccnc(N3CCn4c5c(c(F)c4C3=O)CCCC5)c2CO)cc(Nc2ccccn2)c1=O [Example 183, 10-fluoro-2-(3-(hydroxymethyl)-4-(1-methyl-6-oxo-5-(pyridin-2-ylamino)-1,6-dihydropyridin-3-yl)pyridin-2-yl)-3,4,6,7,8,9-hexahydropyrazino[1,2-a]indol-1(2H)-one] |  | 0.906 µM |
| Cn1cc(-c2ccnc(N3CCn4c(cc5c4CCCC5)C3=O)c2CO)cc(Nc2ccc(C3=CCN(C4COC4)CC3)cn2)c1=O [Example 200, 2-[3-(hydroxymethyl)-4-[1-methyl-5-[[5-[1-(oxetan-3-yl)-3,6-dihydro-2H-pyridin-4-yl]-2-pyridyl]amino]-6-oxo-3-pyridyl]-2-pyridyl]-3,4,6,7,8,9-hexahydropyrazino[1,2-a]indol-1-one] | 0.636 µM |  |
| CCC(=O)N1CCn2nc(Nc3cc(-c4ccnc(N5CCn6c(cc7c6CC(C)(C)C7)C5=O)c4CO)cn(C)c3=O)cc2C1 [Example 265, 3-[3-(hydroxymethyl)-4-[1-methyl-6-oxo-5-[(5-propanoyl-6,7-dihydro-4H-pyrazolo[1,5-a]pyrazin-2-yl)amino]-3-pyridyl]-2-pyridyl]-7,7-dimethyl-1,2,6,8-tetrahydrocyclopenta[3,4]pyrrolo[3,5-b]pyrazin-4-one] | 0.0091 µM |  |
| CN1CCn2nc(Nc3cc(-c4cncc(N5CCn6c(cc7c6CCCC7)C5=O)c4CO)cn(C)c3=O)cc2C1 [Example 138, 2-(4-(Hydroxymethyl)-5-(1-methyl-5-(5-methyl-4,5,6,7-tetrahydropyrazolo[1,5-a]pyrazin-2-ylamino)-6-oxo-1,6-dihydropyridin-3-yl)pyridin-3-yl)-3,4,6,7,8,9-hexahydropyrazino[1,2-a]indol-1(2H)-one] |  | 0.353 µM |
| Cc1cc(Nc2cc(-c3ccnc(N4CCc5c(cc6n5CCCC6)C4=O)c3CO)cn(C)c2=O)nn1C [Example 242, 2-[4-[5-[(1,5-dimethylpyrazol-3-yl)amino]-1-methyl-6-oxo-3-pyridyl]-3-(hydroxymethyl)-2-pyridyl]-3,4,6,7,8,9-hexahydropyrido[3,4-b]indolizin-1-one] | 1.2 µM |  |
| C[C@H]1CN(C2COC2)CCN1c1ccc(Nc2cc(-c3ccnc(N4CCn5c6c(c(F)c5C4=O)CCCC6)c3CO)nn(C)c2=O)nc1 [Example 231, 10-fluoro-2-[3-(hydroxymethyl)-4-[1-methyl-5-[[5-[(2S)-2-methyl-4-(oxetan-3-yl)piperazin-1-yl]-2-pyridyl]amino]-6-oxo-pyridazin-3-yl]-2-pyridyl]-3,4,6,7,8,9-hexahydropyrazino[1,2-a]indol-1-one] | 0.0624 µM |  |
